Laboratory results: patent US5495032A, “Process for producing 7-(substituted)-8-(substituted-9-[(substituted glycyl)amido]-6-demethyl-6-deoxytetracyclines” (priority 1994, dated 1996)
In brackets after ≈: the same amount, converted by molar mass. Where a name gives a salt, the structure may show the parent alone. Read-outs that look alike come from different tables or passages of the source.

What was measured:
Assay type in all cases: cell-based
[1] = test system: E. coli #311 (MP); test: MIC, agar dilution method; settings: Escherichia coli, 18 hours at 35° C., read-out: MIC
[2] = test system: S. aureus UBMS 88-5 Tet M; test: microbe, parasite or virus in culture; settings: Staphylococcus aureus, UBMS885TETM, 18 h
[3] = test system: E. coli UBMS 88-1 Tet B; test: microbe, parasite or virus in culture; settings: Escherichia coli, UBMS881TETB, 18 h, 18 hours at 35° C.
[4] = test system: S. aureus UBMS 90-2 Tet M; test: microbe, parasite or virus in culture; settings: Staphylococcus aureus, UBMS902TETM, 18 h, 18 hours at 35° C.
[5] = test system: E. coli UBMS 90-5 sens; test: MIC, agar dilution method; settings: Escherichia coli, UBMS905SENS, 18 hours at 35° C., read-out: MIC
[6] = test system: Enterococcus 12201; test: MIC, agar dilution method; settings: Enterococcus, 12201, 18 h, 18 hours at 35° C.
[7] = test system: E. coli MC 4100 Tet sens.; test: MIC, agar dilution method; settings: Escherichia coli, 18 hours at 35° C., read-out: MIC
[8] = test system: S. mariescens FPOR 8733; test: MIC, agar dilution method; settings: 18 hours at 35° C.
[9] = test system: S. aureus UBMS 90-3; test: MIC, agar dilution method; settings: Staphylococcus aureus, UBMS903, 18 h
[10] = test system: S. aureus UBMS 88-4; test: MIC, agar dilution method; settings: Staphylococcus aureus, UBMS884, 18 hours at 35° C., read-out: MIC
[11] = test system: E. coli PRP1 Tet A; test: microbe, parasite or virus in culture; settings: Escherichia coli, PRP1TETA, 18 h, 18 hours at 35° C.
[12] = test system: E. coli J3272 Tet D; test: microbe, parasite or virus in culture; settings: Escherichia coli, J3272TETD, 18 h
[13] = test system: S. aureus UBMS 88-7 Tet K; test: microbe, parasite or virus in culture; settings: Staphylococcus aureus, UBMS887TETK, 18 h, 18 hours at 35° C.
[14] = test system: Ps. acruginosa ATCC 27853; test: MIC, agar dilution method
[15] = test system: X. maltophilia NEMC 87210; test: MIC, agar dilution method; settings: Stenotrophomonas maltophilia
[16] = test system: S. aureus UBMS 90-1 Tet M; test: microbe, parasite or virus in culture; settings: Staphylococcus aureus, UBMS901TETM, 18 h, 18 hours at 35° C.
[17] = test system: E. faecalis ATCC 29212; test: MIC, agar dilution method; settings: Enterococcus faecalis
[18] = test system: S. aureus NEMC 8769; test: MIC, agar dilution method; settings: Staphylococcus aureus, NEMC8769, 18 h
[19] = test system: E. coli UBMS 90-4 Tet M; test: microbe, parasite or virus in culture; settings: Escherichia coli, UBMS904TETM, 18 h, 18 hours at 35° C.
[20] = test system: S. aureus IVES 2943; test: MIC, agar dilution method; settings: Staphylococcus aureus, IVES2943, 18 h
[21] = test system: E. coli UBMS 89-2 Tet sens; test: MIC, agar dilution method; settings: Escherichia coli, UBMS892TETSENS, 18 h, 18 hours at 35° C., read-out: MIC
[22] = test system: S. aureus ROSE (MP); test: MIC, agar dilution method; settings: Staphylococcus aureus, 18 h, 18 hours at 35° C.
[23] = test system: S. aureus IVES 1 983; test: MIC, agar dilution method; settings: Staphylococcus aureus, IVES1983, 18 h
[24] = test system: E. coli J2175; test: MIC, agar dilution method; settings: Escherichia coli, 18 hours at 35° C., read-out: MIC
[25] = test system: E. coli MC 4100 TNIOC Tet B; test: microbe, parasite or virus in culture; settings: Escherichia coli, 18 h, 18 hours at 35° C.
[26] = test system: S. aureus SMITH (MP); test: MIC, agar dilution method; settings: Staphylococcus aureus, 18 h, 18 hours at 35° C.
[27] = test system: S. aureus ATCC 29213; test: MIC, agar dilution method; settings: Staphylococcus aureus, ATCC29213, 18 h, 18 hours at 35° C.
[28] = test system: E. coli ATCC 25922; test: MIC, agar dilution method; settings: Escherichia coli, ATCC25922, 18 hours at 35° C., read-out: MIC
[29] = test system: S. hemolyticus AVHAH 88-3; test: MIC, agar dilution method; settings: Streptococcus pyogenes
[30] = test system: E. coli UBMS 89-1 Tet M; test: microbe, parasite or virus in culture; settings: Escherichia coli, UBMS891TETM, 18 h, 18 hours at 35° C.
[31] = test system: E. coli BAJ9003 IMP MUT; test: microbe, parasite or virus in culture; settings: Escherichia coli, BAJ9003IMPMUT, 18 h, 18 hours at 35° C.
[32] = test system: E. coli J3272 Tet C; test: microbe, parasite or virus in culture; settings: Escherichia coli, J3272TETC, 18 h
[33] = Ps. acruginosa ATCC 27853, 18 hours at 35° C., read-out: MIC
[34] = NEMC87210, 18 hours at 35° C., read-out: MIC
[35] = AVHAH883, 18 hours at 35° C., read-out: MIC
[36] = ATCC29212, 18 h, 18 hours at 35° C.

| Compound | MIC [1] [µg/mL] | MIC [2] [µg/mL] | MIC [3] [µg/mL] | MIC [4] [µg/mL] | MIC [5] [µg/mL] | MIC [6] [µg/mL] | MIC [7] [µg/mL] | MIC [11] [µg/mL] | MIC [12] [µg/mL] | MIC [13] [µg/mL] | MIC [16] [µg/mL] | MIC [19] [µg/mL] | MIC [20] [µg/mL] | MIC [21] [µg/mL] | MIC [22] [µg/mL] | MIC [23] [µg/mL] | MIC [24] [µg/mL] | MIC [25] [µg/mL] | MIC [30] [µg/mL] | MIC [32] [µg/mL] | further results |
| --- | --- | --- | --- | --- | --- | --- | --- | --- | --- | --- | --- | --- | --- | --- | --- | --- | --- | --- | --- | --- | --- |
| CCCNCC(=O)Nc1c(Cl)cc2c(c1O)C(=O)C1=C(O)[C@]3(O)C(=O)C(C(N)=O)=C(O)[C@@H](N(C)C)C3CC1C2 (stereo partly drawn) [F, [4S-(4α,12aα)]-8-Chloro-4-(dimethylamino)-1,4,4a,5,5a,6,11,12a-octahydro-3,10,12,12a-tetrahydroxy-1,11-dioxo-9-[[(propylamino)acetyl]amino]-2-naphthacenecarboxamide dihydrochloride] | 0.5 | 0.5 | 0.5 | 0.25 | 0.5 | 0.25 | 0.12 | 4 | 0.25 | 8 | 0.5 | 0.5 | 16 | 1 | 16 | 8 | 1 | 0.5 | 0.5 | 1 | MIC ([8]; read-out: MIC): 8 µg/mL; MIC [9]: 0.5 µg/mL; MIC [10]: 0.25 µg/mL; MIC [14, 33]: 32 µg/mL; MIC [15, 34]: 2 µg/mL; MIC ([17]; ATCC29212, 18 hours at 35° C., read-out: MIC): 0.12 µg/mL; MIC [18]: 0.25 µg/mL; MIC [26]: 0.25 µg/mL; MIC [27]: 0.25 µg/mL; MIC [28]: 0.5 µg/mL; MIC [29, 35]: 4 µg/mL; MIC [31]: 0.12 µg/mL |
| CN(C)[C@@H]1C(O)=C(C(N)=O)C(=O)[C@@]2(O)C(O)=C3C(=O)c4c(O)cccc4[C@@](C)(O)[C@H]3C[C@@H]12 [M, Tetracycline] | – | – | > 32 | 32 (≈ 72 µM) | – | > 32 | – | 32 (≈ 72 µM) | > 32 | > 32 | > 32 | 32 (≈ 72 µM) | > 32 | 2 (≈ 4.5 µM) | > 32 | > 32 | 2 (≈ 4.5 µM) | > 32 | 32 (≈ 72 µM) | > 32 | MIC ([2]; S. aureus UBMS 88-5 Tet M, 18 hours at 35° C.): > 32 µg/mL; MIC ([8]; 18 h): > 32 µg/mL; MIC ([14]; 18 h): 16 µg/mL (≈ 36 µM); MIC ([15]; NEMC87210, 18 h, 18 hours at 35° C.): 8 µg/mL (≈ 18 µM); MIC [17, 36]: 16 µg/mL (≈ 36 µM); MIC ([29]; AVHAH883, 18 h, 18 hours at 35° C.): 1 µg/mL (≈ 2.25 µM) |
| CN(C)CC(=O)Nc1c(O)c2c(c(N(C)C)c1Cl)CC1CC3[C@H](N(C)C)C(O)=C(C(N)=O)C(=O)[C@@]3(O)C(O)=C1C2=O (stereo partly drawn) [B, [4S-(4α,12aα)]-8-Chloro-4,7-(dimethylamino)-9-[[(dimethylamino)acetyl]amino]-1,4,4a,5,5a,6,11,12a-octahydro-3,10,12,12a-tetrahydroxy-1,11-dioxo-2-naphthacenecarboxamide] | 4 (≈ 6.76 µM) | 0.25 (≈ 0.422 µM) | > 32 | 0.25 (≈ 0.422 µM) | 32 (≈ 54 µM) | 0.12 (≈ 0.203 µM) | 2 (≈ 3.38 µM) | 16 (≈ 27 µM) | 32 (≈ 54 µM) | 2 (≈ 3.38 µM) | 0.5 (≈ 0.845 µM) | > 32 | 4 (≈ 6.76 µM) | 16 (≈ 27 µM) | 8 (≈ 13.5 µM) | 4 (≈ 6.76 µM) | 32 (≈ 54 µM) | > 32 | 32 (≈ 54 µM) | 16 (≈ 27 µM) | MIC ([8]; 18 h): > 32 µg/mL; MIC [9]: 0.12 µg/mL (≈ 0.203 µM); MIC [10]: 0.25 µg/mL (≈ 0.422 µM); MIC [14, 33]: > 32 µg/mL; MIC [15, 34]: 0.5 µg/mL (≈ 0.845 µM); MIC [17, 36]: 0.12 µg/mL (≈ 0.203 µM); MIC [18]: 0.12 µg/mL (≈ 0.203 µM); MIC [26]: 0.12 µg/mL (≈ 0.203 µM); MIC [27]: 0.25 µg/mL (≈ 0.422 µM); MIC [28]: 8 µg/mL (≈ 13.5 µM); MIC [29, 35]: 0.5 µg/mL (≈ 0.845 µM); MIC [31]: 0.12 µg/mL (≈ 0.203 µM) |
